Data published in patent US4822815A, “Dioxane hexenoic acids” (Imperial Chemical Industries PLC, priority 1985, dated 1989).

Legend:
[1] = test system: U46619 induced bronchoconstriction; test: Test (c) bronchoconstriction test, Konzett-Rossler anaesthetised guinea-pig model; type: in vivo; settings: 2 hours after oral dosing at 0.05 mg/kg
Source text: (c) a bronchoconstriction test involving measuring the inhibition by a test compound of the broncho-constriction induced in the Konzett-Rossler, anaesthetised guinea-pig model (as modified by Collier and James, Brit.J.Pharmacol., 1967, 30, 283-307) by intravenous administration of the TXA2 mimetic agent, U46619 and involving:
(i) obtaining a cumulative dose-response curve to U46619 induced bronchoconstriction by intravenous administration of constant volumes of increasing concentrations of U46619 (0.2-4 μg/kg) in physiological saline solution and expressing bronchoconstriction as the maximum of that theoretically obtainable with no air flow to the test animal;
(ii) generating a cumulative dose-response curve to U46619 induced bronchoconstriction at 30 minute intervals for 3 hours after oral dosing of test compound; and
(iii) calculating a dose-ratio for the test compound (that is the ratio of concentration of U46619 required to cause 50% bronchoconstriction in the presence and absence of test compound) indicating the potency of TXA2 antagonism.

[2] = test system: TXA2; test: Test (a) rabbit aortal strip model, U46619 as agonist; type: cell-based; settings: ±0.05
Protocol: (§1) As stated earlier, the acids of formula I are antagonists of one or more of the actions of TXA2, for example certain of its actions on blood platelets, the vasculature and/or the lung.
(a) The rabbit aortal strip model devised by Piper and Vane (Nature, 1969, 223, 29-35) using as agonist a freshly prepared sample of TXA2, generated by addition of arachidonic acid (25 μg) to citrated, platelet rich rabbit plasma (250 μl) and allowing the mixture to aggregate fully over 90 seconds before use; alternatively the TXA2 mimetic agent known as U46619 (described by R L Jones et alia in "Chemistry, Biochemistry and Pharmacological Activity of Prostanoids" edited by S M Roberts and F Scheinmann, at page 211; Pergamon Press, 1979) may be used as the agonist;

[3] = molecular target: T1, U46619 stimulated platelet aggregation (Homo sapiens, UniProt P21731); test: Test (b) blood platelet aggregation test (human citrated platelet-rich plasma, U46619); type: cell-based; settings: U46619 stimulated aggregation of human platelets; averaged over several concentrations
T1 construct: human, citrated, platelet-rich plasma; endogenous in cells; host or cells: human platelets in citrated platelet-rich plasma
T1 sequence (P21731 1-343): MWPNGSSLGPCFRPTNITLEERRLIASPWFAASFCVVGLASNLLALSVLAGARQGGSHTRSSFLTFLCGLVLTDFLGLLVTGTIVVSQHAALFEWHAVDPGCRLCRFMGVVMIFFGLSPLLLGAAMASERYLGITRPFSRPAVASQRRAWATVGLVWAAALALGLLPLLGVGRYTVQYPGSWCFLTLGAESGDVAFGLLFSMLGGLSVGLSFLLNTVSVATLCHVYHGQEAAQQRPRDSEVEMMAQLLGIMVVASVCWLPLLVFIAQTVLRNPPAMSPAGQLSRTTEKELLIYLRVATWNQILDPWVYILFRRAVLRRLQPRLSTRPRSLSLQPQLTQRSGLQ
Source text: (b) A blood platelet aggregation test based on that described by Born (Nature, 1962, 194, 927-929) and involving:
(i) aggregating human, citrated, platelet-rich plasma by addition of the TXA2 mimetic agent U46619 so that a dose-response curve is generated,
(ii) generating a dose-response curve for U46619 stimulated platelet aggregation in the presence of decreasing amounts of test compound (generally in the range 10^-5 M to 10^-10 M); and
(iii) calculating a KB value indicating potency of TXA2 antagonism for the test compound, averaged over several concentrations, from the calculated 50% response value for U46619 aggregation in the presence and absence of test compound; and […]

[4] = test system: TXA2; test: TXA2 antagonism in general (statement in words)
Source text: as §1

[5] = test system: hypertensive effect of U46619; test: Test (d) hypertensive effect of U46619 in anaesthetised rats; type: in vivo, rat (Alderley Park strain)
Protocol: (d) Male rats (Alderley Park strain) are anaesthetised with sodium pentobarbital and blood pressure is monitored at the carotid artery. The TXA2 mimetic agent is administered intravenously via the jugular vein and an ED50 (dose necessary to produce 50% of the maximum hypertensive effect) is established (n=3). [The ED50 for U46619 is approximately 5 μg/kg.] A test compound is then administered either intravenously (via the jugular vein) or orally (via a cannula) directly into the stomach and the animal challenged with an ED50 dose of U46619, five minutes after dosing with test compound and then successively every ten minutes until the hypertensive effect of U46619 is no longer blocked.

Row | Kb [3] [nM] | SMILES | dose ratio [1] | pA2 (U46619) [2] | antagonism of one or more of the actions of TXA2 (in words) [4] | duration of inhibition of the hypertensive effect of U46619 ([5]; about 80% inhibition, oral dose of 0.05 mg/kg) | inhibition of the hypertensive effect of U46619 ([5]; oral dose of 0.05 mg/kg, for more than 1 hour) | ED50 ([5]; Rattus norvegicus, intravenous via the jugular vein, n=3, read-out: ED50 (dose necessary to produce 50% of the maximum hypertensive effect)) [µg/kg]
1 | 7.54 | O=C(O)CC/C=C\C[C@H]1CO[C@@H](c2ccc([N+](=O)[O-])s2)O[C@H]1c1ccccc1O (relative stereo) [Example 4] | > 100 | 8.3 | especially potent antagonists | more than 1 hour | about 80% | –
2 | 13.8 | O=C(O)CC/C=C\C[C@H]1CO[C@@H](c2ccsc2)O[C@H]1c1ccccc1O (relative stereo) [Example 8, 4(Z)-6-([2,4,5-cis-]-4-o-hydroxy-phenyl-2-[3-thienyl]-1,3-dioxan-5-yl)hexenoic acid] | 3 | 7.6 | especially potent antagonists | – | – | –
3 | – | N#Cc1ccc([C@@H]2OC[C@H](C/C=C\CCC(=O)O)[C@H](c3ccccc3O)O2)s1 (relative stereo) [Example 9, 4(2)-6([2,4,5-cis]-2-[5-cyano-2-thienyl]-4-o-hydroxphenyl-1,2-dioxan-5-yl)hexenoic acid] | – | – | especially potent antagonists | – | – | –
4 | – | CCCCC[C@H](O)/C=C/[C@@H]1[C@@H](C/C=C\CCCC(=O)O)[C@H]2CO[C@@H]1C2 [Example U46619, reference compound] | – | – | – | – | – | ~5
